Experimental data as given in patent publication US20240207457A1, “CANCER-SPECIFIC POLYPEPTIDE AND USE THEREOF” (THE CATHOLIC UNIVERSITY OF KOREA INDUSTRY-ACADEMIC …, priority 2021, published 2024).
Where no end group is shown, it is not given here.

What was measured:
tumor tissue = assay: Tumor tissue treated with FITC-bound target and negative control peptide; conditions: peptides binding to FITC; FIG. 13
Procedure: To confirm the tumor-targeting ability of the target peptide, the tumor tissue was treated with both the target peptide and a negative control peptide, not having the attachment ability to tumors, binding to FITC. The negative control peptide is a peptide made by randomly mixing the amino acid positions of the […] peptide sequence “QLMRPPV” (SEQ ID NO: 2).

[1] = test system: HEK293T kidney cells not containing the LGR5 receptor; assay: Immunochemical staining of FITC-peptide in HEK293T cells; format: cell-based; conditions: bound to FITC, FIG. 3
Source text: (§1) To confirm the attachment abilities, phage No. 24 and the peptide were each independently bound to FITC to perform immunochemical staining.

[2] = test system: AGS, MKN45, and MKN28, the gastric cancer cell lines (vs CCD841 normal colonic epithelial cell line); assay: Immunochemical staining of FITC-bound phage and peptide (attachment ability); format: cell-based; conditions: bound to FITC, FIG. 2
Source text: as §1

[3] = test system: MKN45 xenograft mouse model; assay: Local tumor treatment efficacy through peptide and laser irradiation; format: in vivo, mice; conditions: for body weight during the treatment period: laser 200 J
Procedure: To confirm local tumor treatment efficacy using the peptide, an experiment was performed by dividing the mice in Example 6 into four groups: an untreated group, a group irradiated with a laser beam, a group irradiated with a laser beam after Ce6 administration, and a group irradiated with a laser beam after Ce6-peptide administration. Ce6 and the Ce6-peptide were administered at a concentration of 5 mg/kg into the tail vein. When 4 hours elapsed, the tumor area was irradiated with a laser beam for 9 minutes under conditions based on 200 J and 300 mW.

[4] = test system: MKN45 xenograft mouse model; assay: Ex vivo tumor-targeting analysis of extracted organs (IVIS); format: in vivo, mice; conditions: organs extracted 4 hours after injection, 5 mg/kg
Procedure: To confirm the tumor-targeting ability of Ce6-peptide, an in vivo targeting experiment was performed on an MKN45 xenograft mouse model. Ce6 and the Ce6-peptide were injected at a concentration of 5 mg/kg into the tail vein of mice in which a tumor with a diameter of about 8 mm was developed. After 4 hours, the concentration of Ce6 in the tumor was confirmed using an in vivo imaging system (IVIS).
In addition, organs were extracted from each subject 4 hours after the injection to analyze tumor-targeting ability ex vivo using an IVIS.

MKN45 cells [5] = assay: Photodynamic therapy cytotoxicity with laser irradiation; format: cell-based; conditions: laser 10 J, 500 mW, 3 cm, 2 minutes 35 seconds
Procedure: To analyze cytotoxicity through photodynamic therapy, MKN45 cells were treated with Ce6 and the Ce6-peptide at concentrations of 0, 1, 5, 10, 20, 50, 100 nM, and 1 μM and then irradiated with a laser beam based on 10 J, 500 mW, and 3 cm for 2 minutes and 35 seconds.

MKN45 cells [6] = assay: Dark toxicity experiment without laser irradiation; format: cell-based; conditions: for dark toxicity: 0 to 100 nM and 1 μM, FIGS. 8A and 8B
Procedure: To analyze cytotoxicity through photodynamic therapy, MKN45 cells were treated with Ce6 and the Ce6-peptide at concentrations of 0, 1, 5, 10, 20, 50, 100 nM, […]

MKN45 cells [7] = assay: ROS detection by DCF-DA staining; format: cell-based; conditions: Ce6-peptide with laser irradiation, FIG. 9
Procedure: To confirm whether cells were killed by photodynamic therapy, DCF-DA staining was performed to check whether cell death, the mechanism of the corresponding treatment, was caused by reactive oxygen species (ROS).

[8] = test system: AGS, MKN45, and MKN28 gastric cancer cell lines and CCD841 normal cells; assay: Cellular uptake of Ce6-peptide; format: cell-based; conditions: 10 uM; FIG. 7
Procedure: (§2) To confirm the tumor-targeting and therapeutic efficacies of the peptide, photodynamic therapy using chlorin e6 (Ce6), a photosensitizer, was performed. First, to confirm the degree of cellular uptake of Ce6-peptide, AGS, MKN45, and MKN28, gastric cancer cell lines, and CCD841 cells, normal cells, were each independently treated with the Ce6-peptide at a concentration of 10 uM.

[9] = test system: MKN45 intraperitoneal metastasis model; assay: Peptide targeting ability in intraperitoneal metastasis model (IVIS); format: in vivo, Balb/c nude mice; conditions: 5 mg/kg
Procedure: Through Example 6, the targeting ability in vivo of the peptide was confirmed in the xenograft model using MKN45, the gastric cancer cell line. Accordingly, to further verify the targeting ability in an intraperitoneal metastasis model, the same MKN45 cell line was injected intraperitoneally, and the targeting ability of the peptide was further verified.
Intraperitoneal metastasis was confirmed within two weeks by injecting 1×10^7 of the GFP-tagged MKN45 cell line into 5-week-old Balb/c nude mice. As a result, as shown in FIGS. 14A and 14B, additional infiltration of the cells into the liver, kidney, and spleen tissues and large tumors with a size of about 2 cm were observed.
To confirm the targeting ability of the peptide, modeled mice with intraperitoneal metastasis were treated with Ce6 and the Ce6-peptide at a concentration of 5 mg/kg and autopsied 4 hours after the treatment to confirm the concentration of the substance in the tissues using an IVIS.

MKN45 xenograft model = assay: Targeting ability in vivo of Cy5.5-binding peptide; parameters: species or system mice; conditions: FIGS. 6A and 6B
Procedure: Through Examples 1 to 3, the gastric cancer-targeting ability of the peptide was confirmed at the cellular level. Accordingly, to confirm the targeting ability in vivo, a xenograft model was created using MKN45 in 5-week-old immunodeficient mice. Then, Cy5.5-binding peptide was injected at a concentration of 50 nM into the tail vein.

[10] = test system: MKN45 gastric cancer cells vs CCD841 normal cells; assay: FITC fluorescence density by flow cytometer; format: cell-based; conditions: 25, 50, and 100 µM for 1 hour, FIGS. 5A and 5B
Procedure: In addition, after treating each of the CCD841 cells and the MKN45 cells with FITC-peptide at a concentration of 25, 50, and 100 µM for 1 hour, the FITC fluorescence density was measured using a flow cytometer.

[11] = test system: CCD841 cells and MKN45 cells; assay: Fluorescence density saturation of FITC-peptide; format: cell-based; conditions: FIG. 4
Procedure: To confirm the maximum fluorescence absorption capacity of FITC-peptide, CCD841 cells and MKN45 cells were attached to each 8-well chamber. Then, the chamber was treated with the peptide at concentrations of 1, 10, 25, 50, 100, 200, 400, and 800 uM.

[12] = target: T1, LGR5 protein on gastric cancer cell lines (AGS, MKN45, MKN28) (UniProt O75473 22-907, limits assumed); assay: cell fluorescence after 10 uM Ce6-peptide on AGS, MKN45 and MKN28 versus CCD841 cells
T1 construct: whole, on cells; also called LGR5 receptor; gastric cancer cell lines containing LGR5
T1 sequence (looked up): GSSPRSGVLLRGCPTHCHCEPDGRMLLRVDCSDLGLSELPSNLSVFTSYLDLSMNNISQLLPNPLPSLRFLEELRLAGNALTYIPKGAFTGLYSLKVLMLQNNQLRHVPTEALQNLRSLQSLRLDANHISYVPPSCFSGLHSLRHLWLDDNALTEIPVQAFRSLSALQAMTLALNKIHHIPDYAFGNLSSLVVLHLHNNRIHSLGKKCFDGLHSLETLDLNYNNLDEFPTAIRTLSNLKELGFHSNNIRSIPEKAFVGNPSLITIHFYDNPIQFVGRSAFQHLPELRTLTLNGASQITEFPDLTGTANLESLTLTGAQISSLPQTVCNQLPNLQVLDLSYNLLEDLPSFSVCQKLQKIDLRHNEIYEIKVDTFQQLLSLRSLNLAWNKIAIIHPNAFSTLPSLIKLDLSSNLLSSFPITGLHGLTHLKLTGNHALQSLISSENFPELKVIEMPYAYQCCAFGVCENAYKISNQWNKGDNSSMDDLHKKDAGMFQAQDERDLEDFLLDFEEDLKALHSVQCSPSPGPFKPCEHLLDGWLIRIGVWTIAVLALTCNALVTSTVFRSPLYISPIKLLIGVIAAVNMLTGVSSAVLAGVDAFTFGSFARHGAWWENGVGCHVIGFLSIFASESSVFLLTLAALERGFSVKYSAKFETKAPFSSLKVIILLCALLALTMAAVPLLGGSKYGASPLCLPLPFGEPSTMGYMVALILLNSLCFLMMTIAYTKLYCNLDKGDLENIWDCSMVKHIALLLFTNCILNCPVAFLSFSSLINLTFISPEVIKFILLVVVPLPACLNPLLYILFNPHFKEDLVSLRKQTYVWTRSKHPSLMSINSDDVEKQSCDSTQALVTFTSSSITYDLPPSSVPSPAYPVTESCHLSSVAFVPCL
Procedure: as §2

[13] = 5 mg/kg tail vein, 300 mW, 9 minutes
[14] = injected at 50 nM into the tail vein

STCTRSR (LGR5-targeting peptide) was tested, and the “fluorescence based on FITC attachment to tumor tissue” value (tumor tissue) was “significantly high”, the “attachment ability in HEK293T kidney cells” value [1] was “not able to be confirmed” and the “attachment ability, gastric cancer cell lines compared with CCD841” value ([2]; AGS, MKN45, MKN28 vs CCD841 normal colonic epithelial cell line) was “better”. The “attachment ability in the MKN45 cell line” value ([2]; MKN45) was “significantly good”.

chlorin e6 [Ce6, reference compound] was tested, and the “body weight during the treatment period” value [3, 13] was “No change in body weight was observed”, the “infiltration into the tumor compared with other organs (heart, lung, liver, spleen, kidney)” value ([4]; FIGS. 11A and 11B) was “more infiltrated into the tumor than into other organs” and the “cell killing with laser irradiation” value (MKN45 cells [5]) was “cells were not killed”. For the same molecule, the dark toxicity (MKN45 cells [6]) was “significant toxicity was not induced”.

For “negative control peptide: peptide made by randomly mixing the amino acid positions of the non-specific binding peptide sequence QLMRPPV (SEQ ID NO: 2); bound to FITC (also: bound to FITC (site not given here)) [reference compound]”, the “fluorescence based on FITC attachment to tumor tissue” value (tumor tissue) was “not confirmed”.

`OO` [hydrogen peroxide, reference compound] was tested, and the ROS detection (MKN45 cells [7]) was “ROS was detected”.

“Ce6-peptide: peptide of SEQ ID NO: 1 bound to chlorin e6 (Ce6), a photosensitizer (STCTRSR; also: bound to chlorin e6 (site not given here))” was tested, and the “body weight during the treatment period” value [3, 13] was “No change in body weight was observed”, the “time after the treatment at which tumor necrosis was observed” value ([3]; 5 mg/kg tail vein, laser after 4 hours, 200 J, 300 mW, 9 minutes) was 2 days and the “tumor size compared with the other groups” value ([3]; on the 7th day, 5 mg/kg plus laser, FIGS. 12A and 12B) was “significantly reduced”. For the same molecule, the “fluorescence density, gastric cancer cell lines compared with normal cell line” value [8] was “higher”, the “tumor-targeting ability ex vivo compared with Ce6 alone” value [4] was “significantly better” and the “concentration in the kidney” value ([9]; 4 hours after the treatment) was “high concentration in the kidney”. For the same molecule, the “excretion from the body compared with Ce6 alone” value ([9]; 4 hours after the treatment) was “more likely to be excreted from the body”, the “non-specific binding to other organs compared with Ce6 alone” value ([9]; 4 hours after the treatment) was “less likely to non-specifically bind to other organs” and the “tumor-targeting ability compared with Ce6 alone” value ([9]; autopsied 4 hours after the treatment, FIGS. 15A and 15B) was “better”. The “concentration from which cells were rapidly killed” value (MKN45 cells [5]) was at least 50 nM, the dark toxicity (MKN45 cells [6]) was “significant toxicity was not induced” and the cells killed (MKN45 cells [6]; 1 μM) was 60%. The ROS detection (MKN45 cells [7]) was “detected in a concentration-dependent manner”.

For “Cy5.5-binding peptide: peptide of SEQ ID NO: 1 bound to Cy5.5, a fluorescent material (STCTRSR; also: bound to Cy5.5 (site not given here))”, the “tumor-targeting ability compared with the control peptide group” value (MKN45 xenograft model) was “further better tumor-targeting ability”, the “fluorescence density in the tumor tissue” value (MKN45 xenograft model; [14]) was “significantly high fluorescence density” and the “fluorescence in other organs (heart, lung, liver, spleen, kidney)” value (MKN45 xenograft model; [14]) was “poorly detected”.

With “FITC-peptide: peptide of SEQ ID NO: 1 bound to FITC, a fluorescent material (STCTRSR; also: bound to FITC (site not given here))” the “FITC fluorescence density value, MKN45 compared with CCD841” value [10] was “increased in a concentration-dependent manner”, the “concentration from which fluorescence density was saturated in all cells” value ([11]; CCD841 and MKN45 cells) was at least 100 UM and the “concentration at which the difference in fluorescence density values between CCD841 and MKN45 cells was the largest” value ([11]; treated at 1 to 800 uM) was 25 UM.

B1: Ce6-peptide (STCTRSR peptide of SEQ ID NO: 1 bound to chlorin e6) (peptide)
peptide: STCTRSR
modifications: also: chlorin e6 bound to the peptide (site not given here)
notes: also called photosensitizer-peptide composite
For B1, the “fold difference in uptake (fluorescence density), gastric cancer cell lines versus normal CCD841 cells” value [12] was at least 11 times.
